Measured values from ChEMBL document CHEMBL1142789, “Carbonic anhydrase inhibitors: design of thioureido sulfonamides with potent isozyme II and XII inhibitory properties and intraocular pressure lowering activity in a rabbit model of glaucoma” (Bioorg Med Chem Lett, 2005).

What was measured:
Type in all cases: functional
[1] = tested on: Oryctolagus cuniculus; assay: Tested for the fall of intraocular pressure of glaucomatous rabbits, after treatment with one drop (50 uL) 2% solution at a pH 7.0, directly into the eye after 0 minutes of administration
[2] = tested on: Oryctolagus cuniculus; assay: Tested for the fall of intraocular pressure of glaucomatous rabbits, after treatment with one drop (50 uL) 2% solution at a pH 7.0, directly into the eye after 30 minutes of administration
[3] = tested on: Oryctolagus cuniculus; assay: Tested for the fall of intraocular pressure of glaucomatous rabbits, after treatment with one drop (50 uL) 2% solution at a pH 7.0, directly into the eye after 60 minutes of administration
[4] = tested on: Oryctolagus cuniculus; assay: Tested for the fall of intraocular pressure of glaucomatous rabbits, after treatment with one drop (50 uL) 2% solution at a pH 7.0, directly into the eye after 90 minutes of administration
[5] = tested on: Oryctolagus cuniculus; assay: Tested for the fall of intraocular pressure of glaucomatous rabbits, after treatment with one drop (50 uL) 2% solution at a pH 6.5, directly into the eye after 0 minutes of administration
[6] = tested on: Oryctolagus cuniculus; assay: Tested for the fall of intraocular pressure of glaucomatous rabbits, after treatment with one drop (50 uL) 2% solution at a pH 6.5, directly into the eye after 30 minutes of administration
[7] = tested on: Oryctolagus cuniculus; assay: Tested for the fall of intraocular pressure of glaucomatous rabbits, after treatment with one drop (50 uL) 2% solution at a pH 6.5, directly into the eye after 60 minutes of administration
[8] = tested on: Oryctolagus cuniculus; assay: Tested for the fall of intraocular pressure of glaucomatous rabbits, after treatment with one drop (50 uL) 2% solution at a pH 6.5, directly into the eye after 90 minutes of administration

NC(Cc1ccccc1)C(=O)NC(=S)NCCc1ccc(S(N)(=O)=O)cc1.[Cl-].[Na+] (stereo unspecified)
Activity [1]: 0 mmHg
Activity [2]: 4 mmHg
Activity [3]: 6.1 mmHg
Activity [4]: 6.4 mmHg

Cl.NS(=O)(=O)c1ccc(CC/N=C(\S)NNCCN2CCOCC2)cc1
Activity [5]: 0 mmHg
Activity [6]: 6.5 mmHg
Activity [7]: 6.9 mmHg
Activity [8]: 5.9 mmHg

NC(=O)CC(N)C(=O)NC(=S)NCCc1ccc(S(N)(=O)=O)cc1.[Cl-].[Na+] (stereo unspecified)
Activity [1]: 0 mmHg
Activity [2]: 10 mmHg
Activity [3]: 13 mmHg
Activity [4]: 15.5 mmHg

NCC(=O)NC(=S)NCCc1ccc(S(N)(=O)=O)cc1.[Cl-].[Na+]
Activity [1]: 0 mmHg
Activity [2]: 3 mmHg
Activity [3]: 5.9 mmHg
Activity [4]: 5.5 mmHg
